From patent US6767741B1, “Metal binding compounds and their use in cell culture medium compositions” (Invitrogen Corporation, priority 1999, dated 2004)

Key:
Format in all cases: cell-based
[1] = tested on: Sp2/0 cells; assay: Growth of Sp2/0 cells in transferrin-free CD Hybridoma medium with metal binding compounds; conditions: third passage
Description: The ability of iron metal binding compounds to support cellular growth in the absence of transferrin was evaluated using Sp2/0 cells maintained in CD Hybridoma medium (Life Technologies, Rockville, Md.). Stock cultures containing 5 μg/mL human holo-transferrin were prepared in CD Hybridoma medium. For metal binding compound evaluation, Sp2/0 cells were established at an initial viable cell density of 0.5×10^5 cells/mL in stationary culture using 75 cm^2 tissue culture flasks in a final volume of 20 mL. All cultures were maintained at 37° C. in humidified air containing 8% CO2. To eliminate transferrin carry-over effects, cells were subcultured at the same seeding density at 4 day intervals for a total of three passages. Positive control cultures contained 5 μg/mL human holotransferrin while negative control cultures were established in the absence of either transferrin or metal binding compound. Metal binding compound stocks were prepared at 0.1M-0.2M in ddH2O and solubilized when necessary using 5N NaOH or HCl. Iron complexes were established using 0.2M metal binding compound and iron stocks mixed 1:1 (v/v) and incubated for 5-10 minutes at 22° C. All solutions containing metal binding compounds were filter sterilized using a 0.22 μm Millex-GV filter prior to addition to transferrin and serum-free media.
(§1) In most cases, metal binding compounds were evaluated either alone or in combination with ferric chloride or ferrous sulfate at 25 μM, 50 μM and 100 μM. Values in the table represent the mean percentage of control growth for duplicate cultures determined at the third passage.
When added to the medium formulation un-complexed, the metal binding compound is listed alone, when added as a complex with a transition metal, the source of the transition metal is listed with the metal binding compound.

[2] = tested on: 293 cells; assay: Growth of 293 cells in transferrin-free 293 SFM with metal binding compounds; conditions: third passage
[3] = tested on: CHO cells; assay: Growth of CHO cells in transferrin-free CD CHO medium with metal binding compounds; conditions: third passage
Description: The ability of metal binding compounds to support cellular growth in the absence of transferrin was evaluated using CHO cells maintained in CD CHO medium (Life Technologies, Rockville, Md., the formulation of which is described in WO 98/08934). Stock cultures containing 5 μg/mL human holo-transferrin were prepared in CD CHO medium. For metal binding compound evaluation, CHO cells were established in 125 mL shaker flasks at an initial viable seeding density of 1×10^5 cells/mL in a final volume of 20 mL. All cultures were maintained at 37° C. in humidified air containing 8% CO2. To eliminate transferrin carry-over effects, cells were subcultured at 4 day intervals for a total of three passages. Positive control cultures contained 5 μg/mL human holo-transferrin while negative control cultures were established in the absence of either transferrin or metal binding compound. Metal binding compound stocks were prepared at 0.1M-0.2M in ddH2O and solubilized when necessary using 5N NaOH or HCl. Iron complexes were established using 0.2M metal binding compound and iron stocks mixed 1:1 (v/v) and incubated for 5-10 minutes at 22° C. All solutions containing metal binding compounds were filter sterilized using a 0.22 μm Millex-GV filter prior to addition to transferrin and serum-free media.
as §1
The ability of various metal binding compounds to substitute for transferrin in the culture of CHO cells was determined. When added to the medium formulation un-complexed, the metal binding compound is listed alone, when added as a complex with a transition metal, the source of the transition metal is listed with the metal binding compound.

[4] = tested on: mammalian cells; assay: Replacement of transferrin as iron carrier in culture media (general statements); conditions: statement in words
From the text: By “compatible ingredients” is also meant those media nutrients which can be maintained together in solution and form a “stable” combination. […] Ingredients are also considered “stable” if degradation cannot be detected or when degradation occurs at a slower rate when compared to decomposition of the same ingredient in a 1×cell culture media formulation. For example, in 1×media formulations glutamine is known to degrade into pyrolidone carboxylic acid and ammonia. Glutamine in combination with divalent cations are considered “compatible ingredients” since little or no decomposition of the glutamine can be detected over time in solutions or combinations in which both glutamine and divalent cations are present. See U.S. Pat. No. 5,474,931.
The metal-binding compounds used in accordance with the present invention may be obtained commercially (e.g., from Sigma,St. Louis, Mo. and other well-known commercial sources), or may be prepared synthetically according to the guidance provided by the technical and patent publications referenced herein, the disclosures of which are incorporated herein by reference in their entireties.

[5] = 5 μM, control = holo-transferrin
[6] = 10 μM, control = holo-transferrin
[7] = 20 μM, control = holo-transferrin
[8] = 25 μM, control = 5 μg/mL human holo-transferrin, duplicate cultures
[9] = 50 μM, control = 5 μg/mL human holo-transferrin, duplicate cultures
[10] = 100 μM, control = 5 μg/mL human holo-transferrin, duplicate cultures

In the case of CC(=O)N(O)CCCCCNC(=O)CCC(=O)N(O)CCCCCNC(=O)CCC(=O)N(O)CCCCCN.CS(=O)(=O)O.[Cl][Fe]([Cl])[Cl] [Deferoxamine Mesylate · Ferric Chloride], the “mean percentage of control growth” value [1, 5] is reported as 0%, the “mean percentage of control growth” value [1, 6] is reported as 0% and the “mean percentage of control growth” value [1, 7] is reported as 0%. The “mean percentage of control growth” value [2, 5] was 101%, the “mean percentage of control growth” value [2, 6] was 120% and the “mean percentage of control growth” value [2, 7] was 127%. The “mean percentage of control growth” value [3, 5] was 50%, the “mean percentage of control growth” value [3, 6] was 74% and the “mean percentage of control growth” value [3, 7] was 52%.
For O=C(O)CN(CCN(CC(=O)O)CC(=O)O)CCN(CC(=O)O)CC(=O)O.O=S(=O)([O-])[O-].[Fe+2] [Diethylenetriamine Penta-Acetic Acid · Ferrous Sulfate], the “mean percentage of control growth” value [1, 8] was 54%, the “mean percentage of control growth” value [1, 9] was 90% and the “mean percentage of control growth” value [1, 10] was 91%. The “mean percentage of control growth” value [2, 8] was 77%, the “mean percentage of control growth” value [2, 9] was 107% and the “mean percentage of control growth” value [2, 10] was 85%. The “mean percentage of control growth” value [3, 8] was 135%, the “mean percentage of control growth” value [3, 9] was 137% and the “mean percentage of control growth” value [3, 10] was 147%.
[Cl][Fe]([Cl])[Cl] [Ferric Chloride, reference compound] was tested, and the “mean percentage of control growth” value [1, 8] was 55%, the “mean percentage of control growth” value [1, 9] was 73% and the “mean percentage of control growth” value [1, 10] was 74%. The “mean percentage of control growth” value [2, 8] was 87%, the “mean percentage of control growth” value [2, 9] was 91% and the “mean percentage of control growth” value [2, 10] was 109%. For the same compound, the “mean percentage of control growth” value [3, 8] was 56%, the “mean percentage of control growth” value [3, 9] was 85% and the “mean percentage of control growth” value [3, 10] was 101%.
In the case of O=S(=O)([O-])[O-].[Fe+2] [Ferrous Sulfate, reference compound], the “mean percentage of control growth” value [1, 8] is reported as 91%, the “mean percentage of control growth” value [1, 9] is reported as 103% and the “mean percentage of control growth” value [1, 10] is reported as 94%. The “mean percentage of control growth” value [2, 8] was 71%, the “mean percentage of control growth” value [2, 9] was 60% and the “mean percentage of control growth” value [2, 10] was 41%. For the same compound, the “mean percentage of control growth” value [3, 8] was 88%, the “mean percentage of control growth” value [3, 9] was 79% and the “mean percentage of control growth” value [3, 10] was 38%.
In the case of NC(=O)CCC(N)C(=O)O.[Cl][Fe]([Cl])[Cl] (centres unmarked) [Glutamine · Ferric Chloride], the “ability to replace transferrin as iron carrier in culture media” value [4] is reported as “can be substituted for transferrin”, the “mean percentage of control growth” value [1, 8] is reported as 36% and the “mean percentage of control growth” value [1, 9] is reported as 55%. For the same compound, the “mean percentage of control growth” value [1, 10] was 65%.
With O=C(O)CN(CC(=O)O)CC(=O)O.[Cl][Fe]([Cl])[Cl] [Nitriloacetic Acid · Ferric Chloride] the “mean percentage of control growth” value [1, 8] was 88%, the “mean percentage of control growth” value [1, 9] was 87% and the “mean percentage of control growth” value [1, 10] was 70%. The “mean percentage of control growth” value [2, 8] was 100%, the “mean percentage of control growth” value [2, 9] was 118% and the “mean percentage of control growth” value [2, 10] was 74%. The “mean percentage of control growth” value [3, 8] was 127%, the “mean percentage of control growth” value [3, 9] was 107% and the “mean percentage of control growth” value [3, 10] was 107%.
NC(CO)C(=O)NO.[Cl][Fe]([Cl])[Cl] (centres unmarked) [Serine Hydroxamate · Ferric Chloride] was tested, and the “mean percentage of control growth” value [1, 8] was 46%, the “mean percentage of control growth” value [1, 9] was 66% and the “mean percentage of control growth” value [1, 10] was 62%. The “mean percentage of control growth” value [2, 8] was 68%, the “mean percentage of control growth” value [2, 9] was 65% and the “mean percentage of control growth” value [2, 10] was 51%. For the same compound, the “mean percentage of control growth” value [3, 8] was 106%, the “mean percentage of control growth” value [3, 9] was 121% and the “mean percentage of control growth” value [3, 10] was 124%.
For OC[C@@H](O)[C@@H](O)[C@H](O)[C@@H](O)CO [sorbitol], the “ability to replace transferrin as iron carrier in culture media” value [4] was “used successfully to replace transferrin”.
In the case of “Ferrous Gluconate · Ascorbic Acid Phosphate”, the “mean percentage of control growth” value [1, 8] is reported as 92%, the “mean percentage of control growth” value [1, 9] is reported as 94% and the “mean percentage of control growth” value [1, 10] is reported as 93%. For the same compound, the “mean percentage of control growth” value [2, 8] was 86%, the “mean percentage of control growth” value [2, 9] was 109% and the “mean percentage of control growth” value [2, 10] was 101%. For the same compound, the “mean percentage of control growth” value [3, 8] was 91%, the “mean percentage of control growth” value [3, 9] was 61% and the “mean percentage of control growth” value [3, 10] was 28%.
